Results taken from patent US20050059726A1, “Pyrrolidine-2-ones as factor xa inhibitors” (priority 2001, published 2005).
Where a name gives a salt, the structure may show the parent alone.

Target: human Factor Xa (Homo sapiens, UniProt P00742)
Assay: In vitro assay for inhibition of Factor Xa (2), fluorogenic assay
Format: biochemical
Conditions: substrate Rhodamine 110, bis-(CBZ-glycylglycyl-L-arginine amide 10 μM), Ki calculated from IC50
Description: In Vitro Assay for Inhibition of Factor Xa (2)
All other compounds of the present invention were tested for their Factor Xa inhibitory activity as determined in vitro by their ability to inhibit human Factor Xa in a fluorogenic assay, using Rhodamine 110, bis-(CBZ-glycylglycyl-L-arginine amide as the fluorogenic substrate. Compounds were diluted from a 10 mM stock solution in dimethylsulfoxide at appropriate concentrations. Assay was performed at room temperature using buffer consisting of: 50 mM Tris-HCl, 150 mM NaCl, 5 mM CaCl2, pH 7.4. containing human Factor Xa (final conc. Of 0.0003U.ml−1). Compound and enzyme were preincubated for 15 min prior to addition of the substrate (final conc. of 10 μM). The reaction was stopped after 3 hrs with the addition of H-D-PHE-PRO-ARG-Chloromethylketone. […] To obtain IC50 values the data were analysed using ActivityBase® and XLfit®.
Calculation of Ki values:
Ki=IC50/(1+[Substrate]/Km)
The Ki value for the above assay can be obtained by dividing the IC50 value by 1.6.

human Factor Xa, sequence (P00742 235-488 limits assumed): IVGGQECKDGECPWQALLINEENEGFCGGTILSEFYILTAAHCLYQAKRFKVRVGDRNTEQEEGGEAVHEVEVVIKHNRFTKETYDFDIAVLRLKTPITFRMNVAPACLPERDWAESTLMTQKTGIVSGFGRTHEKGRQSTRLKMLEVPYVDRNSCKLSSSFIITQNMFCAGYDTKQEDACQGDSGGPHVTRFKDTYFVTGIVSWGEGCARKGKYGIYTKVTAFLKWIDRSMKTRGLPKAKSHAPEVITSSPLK
human Factor Xa, sequence (P00742 41-179 partner limits assumed): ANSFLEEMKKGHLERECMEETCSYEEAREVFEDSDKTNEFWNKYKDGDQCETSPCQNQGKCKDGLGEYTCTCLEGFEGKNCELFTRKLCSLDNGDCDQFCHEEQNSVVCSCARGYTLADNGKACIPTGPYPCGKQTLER

SMILES	Ki [nM]
Cc1noc(C)c1-c1ccc(N2CC[C@H](NS(=O)(=O)c3ccc4cc(Cl)ccc4c3)C2=O)c(F)c1 [Example 72, 6-Chloro-N-{(3S)-1-[4-(3,5-dimethylisoxazol-4-yl)-2-fluorophenyl]-2-oxopyrrolidin-3-yl}naphthalene-2-sulfonamide]	< 20
CC(C)N(C)C(=O)c1ccc(N2CC[C@H](NS(=O)(=O)c3cc4ccc(Cl)cc4s3)C2=O)c(F)c1 [Example 111, 4-((3S)-3-{[(6-Chloro-1-benzothien-2-yl)sulfonyl]amino}-2-oxopyrrolidin-1-yl)-3-fluoro-N-isopropyl-N-methylbenzamide]	< 1000
O=C1[C@@H](NS(=O)(=O)c2ccc3cc(Cl)ccc3c2)CCN1c1ccc(N2CCOCC2)c(F)c1 [Example 103, 6-Chloro-N-{(3S)-1-[3-fluoro-4-(4-morpholinyl)phenyl]-2-oxopyrrolidinyl}-2-naphthalenesulfonamide]	< 1000
CS(=O)(=O)c1ccccc1-c1ccc(N2CC[C@H](NS(=O)(=O)c3cc4cc(Cl)ccc4s3)C2=O)c(F)c1 [Example 12, 5-Chloro-N-{(3S)-1-[3-fluoro-2′-(methylsulfonyl)-1,1′-biphenyl-4-yl]-2-oxopyrrolidin-3yl}-1-benzothiophene-2-sulfonamide]	< 10
CS(=O)(=O)c1ccccc1-c1ccc(N2CC[C@H](NS(=O)(=O)c3cc4ncc(Cl)cc4s3)C2=O)c(F)c1 [Example 37, 6-Chloro-N-{(3S)-1-[3-fluoro-2′-(methylsulfonyl)-1,1′-biphenyl-yl]-2-oxopyrrolidin-3-yl}thieno[3,2b]pyridine-2-sulfonamide]	< 20
COc1ccc(-c2ccc(N3CC[C@H](NS(=O)(=O)c4ccc5cc(Cl)ccc5c4)C3=O)c(F)c2)cn1 [Example 58, 6-Chloro-N-{(3S)-1-[2-fluoro-4-(6-methoxypyridin-3-yl)phenyl]-2-oxopyrrolidin-3-yl}naphthalene-2-sulfonamide]	< 200
O=C1[C@@H](NS(=O)(=O)c2ccc(-c3ccc(Cl)s3)s2)CCN1c1ccc([N+](=O)[O-])cc1F [Example 96, 5′-Chloro-N-[(3S)-1-(2-fluoro-4-nitrophenyl)-2-oxopyrrolidin-3-yl]-2,2′-bithiophene-5-sulfonamide]	< 20
CS(=O)(=O)c1ccccc1-c1ccc(N2CC[C@H](NS(=O)(=O)c3cc4sc(Cl)cc4s3)C2=O)c(F)c1 [Example 87, 5-Chloro-N-{(3S)-1-[3-fluoro-2′-(methylsulfonyl)-1,1′-biphenyl-4-yl]-2-oxopyrrolidin-3-yl}thieno[3.2-b]thiophene-2-sulfonamide]	< 10
CS(=O)(=O)c1ccccc1-c1ccc(N2CC[C@H](NS(=O)(=O)c3cc4ccc(Cl)cc4o3)C2=O)c(F)c1 [Example 36, 6-Chloro-N-{(3S)-1-[3-fluoro-2′-(methylsulfonyl)-1,1′-biphenyl-4yl]-2-oxopyrrolidin-3-yl}-1-benzofuran-2-sulfonamide]	< 10
CC(C)(C)OC(=O)N([C@H]1CCN(c2ccc(-c3ccccc3S(C)(=O)=O)cc2F)C1=O)S(=O)(=O)/C=C/c1ccc(Cl)s1 [Example 44, tert-Butyl [(E)-2-(5-chlorothien-2-yl)ethenyl]sulfonly{(3S)-1-[3-fluoro-2′-(methylsulfonyl)-1,1′-biphenyl-4yl]-2-oxopyrrolidin-3-yl}carbamate]	< 10
CN(C)c1ccc2cc(S(=O)(=O)N[C@H]3CCN(c4ccc(-c5ccccc5S(C)(=O)=O)cc4F)C3=O)ccc2c1 [Example 9, 6-(Dimethylamino)-N-{(3S)-1-[3-fluoro-2′-(methylsulfonyl)-1,1′-biphenyl-4-yl]-2-oxopyrrolidin-3-yl}naphthalene-2-sulfonamide]	< 1000
O=C1[C@@H](NS(=O)(=O)c2ccc3cc(Cl)ccc3c2)CCN1c1ccc(-c2ccoc2)cc1F [Example 65, 6-Chloro-N-{(3S)-1-[2-fluoro-4-(3-furyl)phenyl]-2-oxopyrrolidin-3-}naphthalene-2-sulfonamide]	< 200
NS(=O)(=O)c1ccccc1-c1ccc(N2CC[C@H](NS(=O)(=O)c3cc4ccc(Cl)cc4s3)C2=O)c(F)c1 [Example 15, N-{(3S)-1-[2′-(Aninosulfonyl)-3-fluoro-1,1′-biphenyl-4-yl]-2-oxopyrrolidin-3-yl}-6-chloro-1-benzothiophene-2-sulfonamide]	< 10
CCC(=O)Nc1ccc(N2CC[C@H](NS(=O)(=O)c3cc4ccc(Cl)cc4s3)C2=O)c(F)c1 [Example 118, N-[4-((3S)-3-{[(6-Chloro-1-benzothien-2-yl)sulfonyl]amino}-2-oxopyrrolidinyl)-3-fluorophenyl]propanamide]	< 1000
C/C(=C\S(=O)(=O)N[C@H]1CCN(c2ccc(-c3ccccc3S(C)(=O)=O)cc2F)C1=O)c1ccc(Cl)s1 [Example 39, (1E)-2-(5-Chlorothien-2-yl)-N-{(3S)-1-[3-fluoro-2′-(methylsulfonyl)-1,1′-biphenyl-4yl]-2-oxopyrrolidin-3-yl}prop-1-ene-1-sulfonamide]	< 10
CC(C)N(C=O)c1ccc(N2CC[C@H](NS(=O)(=O)/C=C/c3ccc(Cl)s3)C2=O)c(F)c1 [Example 120, (E)-2-(5-Chlorothien-2-yl)-N-((3S)-1-{2-fluoro-4-[formyl(isopropyl)amino]phenyl}-2-oxopyrrolidin-3-yl)ethenesulfonamide]	< 10
CS(=O)(=O)c1ccccc1-c1ccc(N2CC[C@H](NS(=O)(=O)/C=C/c3ccc(Cl)cc3)C2=O)c(F)c1 [Example 7, (E)-2-(4-Chlorophenyl)-N-{(3S)-1-[3-fluoro-2′-(methylsulfonyl)-1,1′-biphenyl-4-yl]-2-oxopyrrolidin-3-yl}ethenesulfonamide]	< 10
O=C1[C@@H](NS(=O)(=O)c2ccc3cc(Cl)ccc3c2)CCN1c1ccc(-n2cccn2)cc1F [Example 129, 6-Chloro-N-{(3S)-1-[2-fluoro-4-(1H-pyrazol-1-yl)phenyl]-2-oxopyrrolidinyl}-2-naphthalenesulfonamide]	< 10
CNS(=O)(=O)c1ccccc1-c1ccc(N2CC[C@H](NS(=O)(=O)/C=C/c3ccc(Cl)s3)C2=O)nc1 [Example 29, 2-{6-[(3S)-3-({[(E)-2-(5-Chlorothien-2-yl)ethenyl]sulfonyl}amino)-2-oxopyrrolidin-1-yl]pyridin-3-yl}-N-methylbenzenesulfonamide]	< 10
O=C1[C@@H](NS(=O)(=O)c2ccc3cc(Cl)ccc3c2)CCN1c1ccc(-c2ncccn2)cc1F [Example 81, 6-Chloro-N-[(3S)-1-(2-fluoro-4-pyrimidin-2-ylphenyl)-2-oxopyrrolidin-3-yl]naphthalene-2-sulfonamide]	< 1000

Results, then the molecule that gave them:

Ki [nM]	SMILES
< 200	CC(C)Oc1ccccc1-c1ccc(N2CC[C@H](NS(=O)(=O)/C=C/c3ccc(Cl)s3)C2=O)nc1 [Example 31, (E)-2-(5-Chlorothien-2-yl)-N-{(3S)-1-[5-(2-isopropoxyphenyl)pyridin-2-yl]-2-oxopyrrolidin-3-yl}ethenesulfonamide]
< 200	COc1ncc(-c2ccc(N3CC[C@H](NS(=O)(=O)c4ccc5cc(Cl)ccc5c4)C3=O)c(F)c2)c(OC)n1 [Example 56, 6-Chloro-N-{(3S)-1-[4-(2,4-dimethoxypyrimidin-5-yl)-2-fluorophenyl]oxopyrrolidin-3-yl}naphthalene-2-sulfonamide]
< 10	O=C1[C@@H](NS(=O)(=O)/C=C/c2ccc(Cl)s2)CCN1c1ccc(-c2ccccc2[N+](=O)[O-])cn1 [Example 17, (E)-2-(5-Chlorothien-2-yl)-N-{(3S)-1-[5-(2-nitrophenyl)pyridin-2-yl]-2-oxopyrrolidin-3-yl}ethenesulfonamide]
< 10	NC(=O)c1cccc(-c2ccc(N3CC[C@H](NS(=O)(=O)c4ccc5cc(Cl)ccc5c4)C3=O)c(F)c2)c1 [Example 50, 4′-[(S)-3-(6-Chloro-naphthalene-2-sulphonylamino)-2-oxo-pyrrolidin-1-yl]-3′-fluoro-biphenyl-3-carboxylic Acid Amide]
< 10	C/C(=C\S(=O)(=O)N[C@H]1CCN(c2ccc(I)cn2)C1=O)c1ccc(Cl)s1 [Example 136]
< 10	C[N+](C)(CC(N)=O)Cc1nccn1-c1ccc(N2CC[C@H](NS(=O)(=O)CCc3ccc(Cl)s3)C2=O)c(F)c1 [Example 143, 2-Amino-N-[(1-{4-[(3S)-3-({[2-(5-chlorothien-2-yl)ethyl]sulfonyl}amino)-2-oxopyrrolidin-1-yl]-3-fluorophenyl}-1H-imidazol-2-yl)methyl]-N,N-dimethyl-2-oxoethanaminium Formate]
< 20	CC(C)N(C=O)c1ccc(N2CC[C@H](NS(=O)(=O)c3cc4ccc(Cl)cc4s3)C2=O)c(F)c1 [Example 121, 6-Chloro-N-((3S)-1-{2-fluoro-4-[formyl(isopropyl)amino]phenyl}-2-oxopyrrolidin-3-yl)-1-benzothiophene-2-sulfonamide]
< 10	Cn1ccnc1-c1ccc(N2CC[C@H](NS(=O)(=O)c3ccc4cc(Cl)ccc4c3)C2=O)c(F)c1 [Example 77, 6-Chloro-N-{(3S)-1-[2-fluoro-4-(1-methyl-1H-imidazol-2-yl)phenyl]-2-oxopyrrolidin-3-yl}naphthalene-2-sulfonamide]
< 10	O=C1[C@@H](NS(=O)(=O)c2ccc3cc(Cl)ccc3c2)CCN1c1ccc(-n2ccnc2)cc1F [Example 122, 6-Chloro-N-{(3S)-1-[2-fluoro-4-(1H-imidazol-1-yl)phenyl]-2-oxopyrrolidin-3-yl}naphthalene-2-sulfonamide]
